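Five concentrations, 48 hours, 96-well plates. Here, GI50 denotes the concentration required for 50% inhibition of growth.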 The source made the active and inactive calls. Rule as the data show it: active = GI50 up to about 1.1 µM and inactive = higher.
Assays:
Experiment in all cases: inhibition of tumour cell growth, NCI panel, 48 h
TK-10 = system: TK-10
OVCAR-3 = system: OVCAR-3
SW-620 = system: SW-620
UACC-257 = system: UACC-257
KM12 = system: KM12
HT-29 = system: HT-29
CCRF-CEM = system: CCRF-CEM
HOP-62 = system: HOP-62
EKVX = system: EKVX
NCI-H23 = system: NCI-H23
A498 = system: A498
SF-268 = system: SF-268
Hs-578T = system: Hs-578T
M14 = system: M14
SF-295 = system: SF-295
MCF7 = system: MCF7
HCC 2998 = system: HCC 2998
CAKI-1 = system: CAKI-1
RXF 393 = system: RXF 393
MDA-MB-231 = system: MDA-MB-231

Measured: GI50

CCOC(=O)CCC(NC(=O)Cc1ccc(Oc2nc3ccccc3nc2-c2ccccc2)cc1)C(=O)OCC (stereo not given)
inactive: TK-10 96.4 µM | OVCAR-3 96.8 µM | SW-620 > 100 µM | UACC-257 > 100 µM | KM12 > 100 µM | HT-29 > 100 µM | CCRF-CEM > 100 µM | HOP-62 45.6 µM | EKVX > 100 µM | NCI-H23 > 100 µM | A498 > 100 µM | SF-268 27 µM | Hs-578T 34.8 µM | M14 > 100 µM | SF-295 67.1 µM | MCF7 91 µM | HCC 2998 > 100 µM | CAKI-1 > 100 µM | RXF 393 37.6 µM | MDA-MB-231 > 100 µM

N#CC(C#N)=C/C=C/c1c(Cl)cccc1Cl
inactive: TK-10 2.7 µM | OVCAR-3 2.13 µM | SW-620 1.92 µM | UACC-257 1.58 µM | KM12 1.58 µM | HT-29 1.7 µM | CCRF-CEM 1.34 µM | HOP-62 2.74 µM | EKVX 3.33 µM | NCI-H23 1.47 µM | A498 2.99 µM | SF-268 1.92 µM | Hs-578T 1.97 µM | M14 1.69 µM | SF-295 2.07 µM | MCF7 1.94 µM | HCC 2998 1.84 µM | CAKI-1 1.93 µM | RXF 393 1.58 µM | MDA-MB-231 1.85 µM

CN1C(=O)N/C(=C\c2ccc(S(=O)(=O)N/N=C\C(O)C(O)C(O)CO)cc2)C1=O (stereo not given)
inactive: TK-10 > 100 µM | OVCAR-3 > 100 µM | SW-620 > 100 µM | UACC-257 > 100 µM | KM12 > 100 µM | HT-29 > 100 µM | CCRF-CEM > 100 µM | HOP-62 > 100 µM | EKVX > 100 µM | NCI-H23 > 100 µM | A498 > 100 µM | SF-268 > 100 µM | Hs-578T > 100 µM | M14 > 100 µM | SF-295 > 100 µM | MCF7 > 100 µM | HCC 2998 > 100 µM | CAKI-1 > 100 µM | RXF 393 > 100 µM | MDA-MB-231 > 100 µM

N#Cc1c(Cl)c2ccccc2n2c1nc1ccccc12
inactive: TK-10 19.4 µM | OVCAR-3 36.5 µM | SW-620 29.1 µM | UACC-257 42.4 µM | KM12 34.1 µM | HT-29 20.3 µM | CCRF-CEM 11.2 µM | HOP-62 38 µM | EKVX 19.9 µM | NCI-H23 24.2 µM | A498 > 100 µM | SF-268 27.2 µM | Hs-578T 17.7 µM | M14 19.6 µM | SF-295 59.7 µM | MCF7 39.9 µM | HCC 2998 19.6 µM | CAKI-1 21.9 µM | RXF 393 22.6 µM | MDA-MB-231 23.8 µM

O=c1ssc(Cl)c1Nc1c(Cl)ssc1=O
inactive: TK-10 19 µM | OVCAR-3 20.5 µM | SW-620 15.8 µM | UACC-257 16.5 µM | KM12 17.3 µM | HT-29 22.4 µM | CCRF-CEM 3.78 µM | HOP-62 20.7 µM | EKVX 20.6 µM | NCI-H23 19.9 µM | A498 17.8 µM | SF-268 23.1 µM | Hs-578T 36.4 µM | M14 19.2 µM | SF-295 41.4 µM | MCF7 24.3 µM | HCC 2998 22.3 µM | CAKI-1 15.2 µM | RXF 393 15 µM | MDA-MB-231 22.3 µM

From ChEMBL document CHEMBL1201862, “PubChem BioAssay data set” (2004)
